The record followed here is patent US10240133B2, “ERK-derived peptides and uses thereof” (Yeda Research and Development Co. Ltd., priority 2013, dated 2019).

For one series, the system named is B-Raf melanoma cells. The series can be described thus: Morphology assay (light microscopy). The series is classed as cell-based. To be noted: 10 μM. As for the experimental part:
(§1) FIGS. 5A-5D illustrate that the EPE peptide leads to apoptosis of B-Raf mutant cancer cells. (A) The EPE peptide affects the morphology of treated cells. The indicated cells were treated with either the EPE or Scr peptides, DMSO, or taxol for 72 h, and photographed by a light microscope. (B) The EPE peptide induces apoptosis in melanoma cells detected by TUNEL. The indicated cell lines were treated as in A for 24 h. Apoptosis was detected by TUNEL staining. Images were obtained by florescence microscope. (C) Quantification of B. The bar-graph represents percent of apoptotic cells calculated in 10 different fields. (D) The EPE peptide induces apoptosis of melanoma cells detected by PARP cleavage. The indicated cell lines were treated as in (A) for 24 h. Cell extracts were subjected to Western blotting with αPARP Ab.
(§2) Cells were seeded on glass cover slips in a 12-wells plate at 25% confluence with medium containing 1% of FCS. Peptides (EPE or Scr), DMSO, or U0126 in a final concentration of 10 μM, were added after 4 h (considered as time “0”). TUNEL staining was performed at 24 h after the treatment according to manufacturer instruction (Roche Applied Science, Nutley, N.J., USA). Briefly, the medium was removed and cells were fixed with 3% of paraformaldehyde (1.5 h, 23° C.). Cells were rinsed twice with PBS and permeabilized with 0.1% Triton X-100 and 0.1% sodium citrate for 2 min on ice. Cells were rinsed twice with PBS and 28 μl of TUNEL reaction mixture (25 μl of TUNEL label, 2.5 μl of TUNEL enzyme and 0.1 mg/ml of DAPI) was added directly on top of the slide, cells were incubated for 16 h in humid box at 37° C. Cover slips were rinsed three times with PBS and mounted on microscope slides. The slides were dried and then subjected to image acquisition by a florescence microscope. For morphology assay, the cells were seeded at approximately 25% confluence in 6 cm plates with medium containing 1% FCS. Peptides (EPE and Scr) or DMSO or U0126 in a final concentration of 10 μM, were added after 4 h (considered to be time 0), 24 h and 48 h. […]

A further series has as its system most cell lines examined. Put plainly: Morphology assay (light microscopy). The series is classed as cell-based. The note with it: 10 μM. As to the method: as §1, §2
Series [1] in a line: Systemic toxicity in xenograft-bearing mice (body weight, organ histology). To be noted: treated animals, end of experiment.
Method: Female SCID mice (Harlan), 5-6 weeks of age, were inoculated s.c. into the flank region with 10^7 A2352 cells in 150 μl mixture of PBS with matrigel (2:1). Tumors were allowed to develop to the size of 5-6.5 mm in diameter (50˜110 mm^3 volume) and then the animals were randomly allocated to different treatment groups. The peptides (100 mM stock in DMSO), were diluted to the necessary concentration in PBS and boiled for 5 minutes. Then, DMSO, Scr or EPE peptides were administered by i.v. injection into the tail vein (150 μl/mouse, 3 times a week). Tumor dimensions were measured with a digital sliding caliper. Tumor volume was calculated using the formula: V=D1×D2×D3×π/6, where D1, D2, D3—represent the three mutually orthogonal growth diameters. To assess any signs of systemic toxicity, body weight was monitored, and recorded at the end of the experiment.
Tumor xenografts, lungs, livers, kidneys and hearts of animals from different treatment groups were removed and subjected for histological analysis by staining of 5 μm paraffin embedded tissue slides with H&E, and examination by light microscope. […] Briefly, paraffin embedded blocks of tumors after different treatments were cut at 4 μm thickness and stained with ERK Abs, followed by second antibodies conjugated to peroxidase and DAB staining. Representative fields of each specimen were photographed at ×20 and ×40 magnifications.
A further series concerns ERK1/2. The series can be described thus: Nuclear translocation of ERK (fluorescence microscopy, subcellular fractionation). The series is classed as cell-based. As for the experimental part:
FIGS. 1A-1F illustrate that EPE peptide prevents nuclear translocation of ERK1. A2352 (A), MDA-MB-231 (B) HeLa (C), T47D (D), NHEM-AD (E) and HB2 (F) cells were serum-starved, pretreated with the EPE peptides, Scr peptide (10 μM, 2 h) DMSO and then either stimulated with TPA (250 nM, 15 min) or left untreated (NS) as control. The cells were stained with αgERK1/2 Ab and DAPI. Scale-bar—15 μm.
FIGS. 12A-12D illustrate that the EPE peptide inhibits the nuclear translocation of ERK1/2. Serum-starved (0.1% FCS, 16 hr) A2352 (FIG. 12A), HeLa (FIG. 12B), MDA-MB-231 (FIG. 12C), or LOXMVI (FIG. 12D) cells were pretreated with EPE or scrambled peptides (10 μM, 2 hr). Cells were then stimulated with EGF (50 ng/ml) or left untreated, and then harvested. Subcellular fractionation of cytoplasm and nucleus was performed as below, and fractions were subjected to Western blot analysis with the indicated Abs. Subcellular Fractionation was performed as follows: Harvested cells were resuspended in 200 μl of buffer H containing 0.1% Nonidet P-40. The lysates were mixed vigorously and centrifuged immediately to yield supernatants containing the cytosolic fraction. Nuclear proteins were extracted by resuspending the nuclear pellets in 200 μl of extraction buffer, waiting on ice for 5 min, brief sonication (2×5 sec, 40 W, 4° C.), vigorous mixing, and centrifugation. Both cytosolic and nuclear fractions were subjected to Western blotting.
A2185 (A) and A2352 (B) B-Raf melanoma cells were serum-starved (16 hours, 0.1% FBS), and then either pretreated with the EPE peptides (10 μM, 2 hours) or left untreated. Then, the cells were stimulated with TPA ([…], 20 min), or left untreated (NS) DMSO as control. The cells were stained with either anti ERK1 (Santa Cruz, C16) or anti ERK2 (C14, Santa Cruz) Abs and DAPI. (C) Quantification of the number of cell in which ERK1 or ERK2 were mostly (>80%) localized in the nucleus was performed by counting 5 fields containing 100 cells per field.
FIGS. 15A-15B illustrate that the EPE peptide prevents nuclear accumulation/translocation of ERK1/2 in PLX4032-resistant melanoma cells. A2352 that were made resistant to PLX4032 (as described under Material and Methods) and A4132 PLX4032 resistant melanoma cell from patient were serum-starved (16 hours, 0.1%), pretreated with the EPE or scrambled peptide (10 μM, 2 hours) and then either stimulated with TPA (100 nM, 20 min) or left untreated (NT) as control. The cells were stained with αgERK1/2 Ab and DAPI.
Cells were fixed in 3% paraformaldehyde in PBS (20 min, 23° C.), and then permeabilized and blocked with 0.2% Triton X-100 in PBS-BSA (2%) for 20 min at 23° C. The fixed cells were sequentially incubated with appropriated Abs, (diluted in 10 μg/ml BSA/PBS) for 1 h, followed by either Cy-2 or rhodamine-conjugated secondary Abs and DAPI (diluted in BSA/PBS, 1:200) for 1 h. To follow the subcellular localization of the biotin-conjugated peptides, cells were incubated with Avidin-FITC (diluted in BSA/PBS 1:400) and DAPI. Slides were analyzed and photographed by a fluorescent microscope (Nikon, Japan, 600× magnification).

On to “GQLNHILGILGEPEQED (Synthetic peptide (EPE)) [EPE peptide, NTS-derived peptide with phosphomimetic EPE motif]”, for which the cell morphology entry in the series on B-Raf melanoma cells is on record as “inducing cell-break already 24 hours after treatment”; in the series with most cell lines examined it was “no effect”. Moreover, in series [1], the “change in weight, organ morphology or other toxicity-related effects” value is given as “None of the animal treated exhibited any significant change”. The “inhibitory effect on nuclear translocation of ERK, compared among SPS, EPE and APA peptides” value in the series with ERK1/2 is on record as “stronger than that of the other two”. Moreover, in the series with ERK1/2 (A2185 and A2352 B-Raf melanoma cells), the “inhibition of ERK1 versus ERK2 translocation” value was “No significant differences between the inhibition of ERK1 and ERK2”. In addition, the “nuclear translocation of ERK1/2 by subcellular fractionation” value in the series on ERK1/2 (A2352, HeLa, MDA-MB-231, LOXMVI, 10 μM, 2 hr, EGF) was “same trend of inhibition”. Also, the “amount of nuclear ERK1/2 in resistant melanoma cells” value in the series on ERK1/2 (PLX4032-resistant A2352 and A4132 cells, 10 μM, 2 hours, TPA) was “reduced the amount of nuclear ERK1/2 both before and after stimulation”.
